{
  "source": "paper PMC9822133",
  "about": "“Design, Synthesis and Antiproliferative Evaluation of Bis-Indole Derivatives with a Phenyl Linker: Focus on Autophagy” (Molecules, 2022)",
  "key": {"A549 cells": {"system": "A549 cells", "assay": "BrdU cell proliferation assay", "format": "cell-based", "settings": "Homo sapiens; A549, 72 h of incubation, 5-30 μM; read-out: IC50, BrdU incorporation", "procedure": "Measurement of the BrdU, a thymidine analogue, is a sensitive method used for the detection of DNA synthesis during the S phase of the cell cycle.\nA549 tumor cells were plated at a density of 5 × 10^3 cells/well in a volume of 80 µL (96-well plates). After 24 h of incubation in the respective medium, we added the indole phytoalexin 49 in concentrations of 5–30 µM. After 48 h of incubation with the test substance, we added BrdU labeling solution and incubated for another 24 h. Subsequently, the cells were fixed for 30 min with a fixing solution, aspirated and incubated with peroxidase-conjugated anti-BrdU antibody (100 µL, 1:100). After washing with washing buffer 3 times, TMB substrate solution (tetramethylbenzidine, Roche, Basel, Switzerland) was added in a volume of 100 uL to each well. During the reaction, 25 µL of 1M H2SO4 was added as a stop solution, and the amount of BrdU incorporated was detected with an automated Cytation™ 3 Cell Imaging Multi-Mode Reader (Biotek, Winooski, VT, USA) at a wavelength of 450 nm. Three independent analyses were performed."}, "Cos-7": {"system": "Cos-7", "assay": "MTT screening assay, Cos-7 non-cancer cells", "format": "cell-based, monkey", "settings": "Primates, 72 h incubation", "description": "(§1) The ability of newly synthesized indole phytoalexins to suppress cell proliferation was screened in vitro on eight cancer cell lines including human colorectal carcinoma (Caco-2 and HCT116), human cervical cancer (HeLa), human breast adenocarcinoma (MCF-7, MDA-MB-231), human alveolar adenocarcinoma (A549) and human leukemic T cell lymphoma (Jurkat), and two non-cancer cell lines (MCF-10A, Cos-7).\n(§2) The cell lines used for this study were Caco-2 (human colorectal adenocarcinoma cell line, American Type Culture Collection, Manassas, VA, USA (ATCC)), HCT116 (human colorectal carcinoma cells European Collection of Authenticated Cell Cultures, Salisbury, UK (ECACC)), HeLa (human cervical tumor cells, ECACC), MCF-7 (human breast tumor cells, ECACC), MDA-MB-231 (human breast tumor cells, ATCC), A549 (human lung carcinoma cells, ATCC), BLM (human melanoma lung metastases, a gift from prof. K. Smetana, Institute of Anatomy, Charles University in Prague), Jurkat (human leukemia cell line, ECACC), Cos-7 (immortalized monkey kidney fibroblasts, ATCC) and MCF-10A (human mammary epithelial cells, ATCC). Caco-2, MCF-7, BLM, Cos-7 and A549 cells were cultured in Dulbecco’s Modified Eagle’s Medium (DMEM) with high glucose and sodium pyruvate (GE Healthcare, Piscataway, NJ, USA); HCT116 lines, HeLa, MDA-MB-231 and Jurkat were cultured in RPMI-1640 medium; and MCF10A cells were cultured in high glucose DMEM/F12 (Dulbecco’s Modified Eagle’s Medium F12). The media were enriched with 10% fetal bovine serum (FBS) and a 1% solution of a mixture of antibiotics and antimycotics 1× HyClone™ (GE Healthcare, Chicago, IL, USA). DMEM/F12 medium was supplemented with epidermal growth factor (EGF) (20 ng/mL final), hydrocortisone (0.5 μg/mL final) and insulin (10 μg/mL final) (Sigma-Aldrich Chemie, Steinheim, Germany). The cells were placed in an incubator at 37 °C with humidified air containing 5% CO2.\n(§3) The MTT assay is a colorimetric method used to quantify the metabolic activity of cells. MTT (3-(4,5-di-methylthiazol-2-yl)2,5-diphenyltetrazolium bromide) (Sigma-Aldrich Chemie, Steinheim, Germany) is reduced by oxidoreductases in the cytosol of cells to light-absorbing formazan, the presence of which can be measured spectrophotometrically and determines the half-maximal inhibitory concentration (IC50). A549 cells were seeded in 95-well culture plates at a density of 5 × 10^3 per well. […]\n(§4) We also incubated the cells with chloroquine at concentrations of 5–20 µM, which was added 1 h before the addition of the test substance, and cisplatin at concentrations of 3–10 µM. […] After 24 h, the absorbance was measured at a wavelength of 540 nm using an automated Cytation™ 3 Cell Imaging Multi-Mode Reader (Biotek, Winooski, VT, USA). […]"}, "MCF-7": {"system": "MCF-7", "assay": "MTT screening assay, MCF-7", "format": "cell-based", "settings": "Homo sapiens, MCF7, 72 h incubation", "description": "as §1, §2, §3, §4"}, "BLM": {"system": "BLM", "assay": "MTT screening assay, BLM", "format": "cell-based", "settings": "Homo sapiens, 72 h incubation"}, "Jurkat": {"system": "Jurkat", "assay": "MTT screening assay, Jurkat", "format": "cell-based", "settings": "Homo sapiens, 72 h incubation", "description": "as §1, §2, §3, §4"}, "[1]": {"system": "glutathione reductase (GR)", "assay": "GR activity in treated A549 cells", "format": "cell-based, human", "settings": "A549, 20 µM", "description": "Glutathione is an important intracellular molecule involved in carcinogen detoxification. On the other hand, its elevated state in cancer cells is often associated with resistance to chemotherapy. […] Because high levels of GSH are associated with cancer cell resistance, the GHS-depleting effect of compound 49 could be interesting due to new cancer chemosensitizer development. In the case of GST and GR, we hypothesize that an increase in the activity of both enzymes may be a compensatory mechanism induced by GSH depletion.\nBoth floating and adherent A549 cells were harvested at 24, 48, and 72 h after treatment with compound 49 (20 µM). SOD determination kit, Glutathione Peroxidase Cellular Activity Assay kit, Glutathione Reductase Assay Kit and Glutathione-S-transferase (GST) Assay Kit (all Sigma Aldrich, Germany) were used for the detection of relevant enzyme activity. Reduced glutathione (GSH) content was measured by the method originally described by Floreani et al.. Assays were performed on an M 501 single beam UV/VIS spectrophotometer (Spectronic Camspec Ltd., Leeds, United Kingdom). All measured parameters were calculated per milligram or gram of protein determined using the bicinchoninic acid assay."}, "HCT116": {"system": "HCT116", "assay": "MTT screening assay, HCT116", "format": "cell-based", "settings": "Homo sapiens, HCT-116, 72 h incubation", "description": "as §1, §2, §3, §4"}, "[2]": {"system": "A549 human lung cancer cells", "assay": "MTT assay with cis-platin alone or combined with compound 49", "format": "cell-based", "settings": "A549, CisPt 10 μM + compound 49 20 μM", "description": "Furthermore, the depletion of GSH has been documented to potentiate the effect of anticancer drugs. Glutathione plays an important role in cisPt detoxification, so depletion of GSH is believed to potentiate the cisPt-induced DNA damage and increase the chemosensitivity of cancer cells to this anticancer drug. Due to the GSH-depleting effect of compound 49, we performed a set of experiments with cis-platin (CisPt) alone or in combination with compound 49 (Figure 9). […] Simultaneous treatments with CisPt (10 μM) and 20 μM of compound 49 caused a 59% reduction in cell growth.\nas §3, with “(IC50).” for “(IC50). A549 cells were seeded in 95-well culture plates at a density of 5 × 10^3 per well.”\nas §4"}},
  "data": [
    {"smiles": "CC(C)(C)OC(=O)n1cc(CNC(=O)Nc2ccc(NC(=O)NCc3cn(C(=O)OC(C)(C)C)c4ccccc34)cc2)c2ccccc21", "note": "[Compound 49, N,N′-(1,4-phenylene)bis{N′-[1-(tert-butoxycarbonyl)indol-3-yl]methyl (urea)}]", "values": [
      {"measurement": "IC50", "setting": "A549 cells", "result": 16.1, "unit": "µM"},
      {"measurement": "IC50", "setting": "Cos-7", "result": "> 100", "unit": "µM"},
      {"measurement": "IC50", "setting": "MCF-7", "result": "> 100", "unit": "µM"},
      {"measurement": "IC50", "setting": "BLM", "result": "> 100", "unit": "µM"},
      {"measurement": "IC50", "setting": "Jurkat", "result": "98.8 ± 1.7", "unit": "µM"},
      {"measurement": "GR", "setting": "[1]; 24 h", "result": "8.200 ± 2.97", "unit": "μkat/mg Prot"},
      {"measurement": "GR", "setting": "[1]; 48 h", "result": "11.270 ± 1.04", "unit": "μkat/mg Prot"},
      {"measurement": "GR", "setting": "[1]; 72 h", "result": "10.100 ± 2.89", "unit": "μkat/mg Prot"},
      {"measurement": "IC50", "setting": "HCT116", "result": "8.8 ± 0.6", "unit": "µM"},
      {"measurement": "reduction in cell growth, combination", "setting": "[2]", "result": 59, "unit": "%"}
    ]}
  ]
}
